Measurements: article PMC8126888 (RSC Medicinal Chemistry, 2020)
Where two headings read alike, the source gives them in different places.

Legend:
[1] = test system: axenic L. don. amastigotes (MHOM/SD/62/1S-CL2, LdBOB); assay: microbe, parasite or virus in culture; conditions: Leishmania donovani
[2] = test system: Leishmania infantum MHOM/MA(BE)/67/ITMAP263 intracellular amastigotes; assay: microbe, parasite or virus in culture; conditions: Macrophage, in Mus musculus
[3] = test system: Trypanosoma cruzi, Tulahuen CL2, beta-galactosidase strain; assay: microbe, parasite or virus in culture; conditions: MRC5, read-out: T. cruzi Tulahuen C4 (LacZ) IC50
in vitro [4] = conditions: human
[5] = test system: L. donovani MHOM/ET/67/L82 intracellular amastigotes; assay: microbe, parasite or virus in culture; conditions: Leishmania donovani, read-out: L. donovani MHOM/ET/67/L82 intracellular amastigotes IC50
[6] = test system: primary peritoneal mouse macrophages (PMM); assay: cells; conditions: Macrophage, read-out: PMM IC50
[7] = test system: L. donovani MHOM/ET/67/L82 intracellular amastigotes; conditions: read-out: L. donovani MHOM/ET/67/L82 intracellular amastigotes IC50
[8] = test system: primary peritoneal mouse macrophages (PMM); assay: Cytotoxicity to PMM (microscopic scoring within susceptibility assay)
MRC-5SV2 cells = assay: Cytotoxicity assay on MRC-5SV2 cells (resazurin)
[9] = test system: primary peritoneal mouse macrophages (PMM); conditions: PMM IC50 / L. infantum IC50
[10] = test system: Leishmania infantum MHOM/MA(BE)/67/ITMAP263 intracellular amastigotes; conditions: for L. Inf. pIC50: from L. infantum intracellular amastigote IC50; for IC50: read-out: L. infantum MHOM/MA(BE)/67/ITMAP263 intracellular amastigotes IC50
in vitro [11] = conditions: human, THP-1 cells differentiated with PMA
in vitro [12] = conditions: human, HepG2 cells
[13] = test system: L. donovani MHOM/SD/62/1SCL2D intracellular amastigotes; assay: microbe, parasite or virus in culture; conditions: Leishmania donovani, read-out: L. donovani MHOM/SD/62/1SCL2D intracellular amastigotes IC50
physchem = conditions: HPLC, Ascentis Express RP Amide column, pH 7.4, eLogD, experimental
[14] = test system: Leishmania infantum (MHOM/MA/67/ITMAP-263) intracellular amastigotes in THP-1; assay: microbe, parasite or virus in culture; conditions: THP-1, read-out: L. infantum MHOM/MA/67/ITMAP263 intracellular amastigotes THP-1 cells IC50
in vitro [15] = conditions: human, HFF-1 cells
in vitro [16] = conditions: human, HepG2 cells; remark: listed apart in the source
in vitro [17] = conditions: human, s9, pH 7.4, Clint human mic., Fig. 2; human microsomes (S9 fractions)
in vitro [18] = conditions: mouse, s9, pH 7.4, Clint mouse mic., Fig. 2; mouse microsomes (S9 fractions)
[19] = read-out: L. donovani MHOM/SD/62/1SCL2D axenic-cidal amastigotes IC50
[20] = read-out: L. Inf. pIC50 (converted)
[21] = read-out: L. infantum MHOM/MA(BE)/67/ITMAP263 intracellular amastigotes IC50
[22] = read-out: L. Inf. pIC50, L. infantum intracellular amastigotes (converted)
[23] = read-out: L. infantum MHOM/MA(BE)/67/ITMAP263 intracellular amastigotes IC50, intracellular amastigotes
[24] = read-out: L. don. pIC50 (converted)
[25] = read-out: L. inf. pIC50, intracellular amastigotes in PMM (converted), geometric mean of a minimum of two experiments ± standard error

| SMILES | CC50 at 3 days (in vitro [4]) | IC50 [6] | IC50 [7] | IC50 [8] | CC50 (MRC-5SV2 cells) | SI (vs PMM) [9] | IC50 [10] | further results |
| --- | --- | --- | --- | --- | --- | --- | --- | --- |
| Cc1nnc2ccc(S(=O)(=O)N(Cc3cccc(F)c3)c3ccc4c(c3)OCO4)cn12 [DNDI0003321887] |  |  |  |  |  |  |  | IC50 [1, 19]: > 30 µM |
| CCCOc1cc(C)c(C)cc1S(=O)(=O)NC1CCCC1 [DNDI0002550535] | > 32 µM | > 32 µM |  |  |  |  |  | IC50 [2, 20]: > 32 µM; IC50 [2, 21]: > 32 µM; IC50 [3]: > 32 µM; IC50 [5]: > 32 µM |
| CCCCCOc1cc(C)c(C)cc1S(=O)(=O)NC1CC(C)(C)NC(C)(C)C1 [Compound Z2035103903] |  |  | 16.2 µM | > 32 µM | 10.9 µM | 7 | 4.76 µM | L. Inf. pIC50 [10]: 5.32 |
| COc1cc(S(=O)(=O)NC(C)c2ccccc2)c(OC)cc1C (centres unmarked) [DNDI0002622495] | > 32 µM | > 32 µM |  |  |  |  |  | IC50 [2, 20]: > 32 µM; IC50 [2, 21]: > 32 µM; IC50 [3]: > 32 µM; IC50 [5]: > 32 µM |
| COc1ccc(S(=O)(=O)N(C)C)cc1NC(=O)Cn1c(=O)oc2ccccc21 [Compound Z15399918] |  |  | > 32 µM | > 32 µM | > 32 µM | 1 | > 32 µM |  |
| CCCOc1cc(C)c(C)cc1S(=O)(=O)NCC1CCCO1 (centres unmarked) [DNDI0002622936] | > 32 µM | > 32 µM |  |  |  |  |  | IC50 [2, 20]: 25.1 µM; IC50 [2, 21]: 25.4 µM; IC50 [3]: > 32 µM; IC50 [5]: > 32 µM |
| COc1cc(S(=O)(=O)N2CCN(Cc3ccccc3)CC2)c(OC)cc1C [Compound Z1532943652] |  |  | > 32 µM | > 32 µM | > 32 µM | 1 | > 32 µM |  |
| O=S(=O)(c1ccc2nncn2c1)N(Cc1ccccc1F)c1ccc2c(c1)OCO2 [DNDI0003321889] |  |  |  |  |  |  |  | IC50 [1, 19]: > 30 µM |
| CCCCCOc1cc(C)c(Cl)cc1S(N)(=O)=O [Compound Z1724003560] |  |  | > 32 µM | > 32 µM | > 32 µM | 1 | > 32 µM |  |
| COc1cc(S(=O)(=O)NCc2ccccc2)c(OC)cc1C [DNDI0002564850] | > 32 µM | > 32 µM |  |  |  |  |  | IC50 [2, 20]: > 32 µM; IC50 [2, 21]: > 32 µM; IC50 [3]: > 32 µM; IC50 [5]: > 32 µM |
| CCN(CC)S(=O)(=O)c1ccc(OC)c(NC(=O)CN(C)c2ccccc2)c1 [Compound Z46175669] |  |  | > 32 µM | > 32 µM | > 32 µM | 1 | > 32 µM |  |
| CCCCOc1cc(C)c(Cl)cc1S(=O)(=O)NCc1cccs1 [DNDI0002620367] | 4.56 µM | > 32 µM |  |  |  |  |  | IC50 [1, 19]: 11 µM; CC50 at 120 h (in vitro [11]): > 50 µM; IC50 [2, 20]: 0.794 µM; IC50 [2, 21]: 0.79 µM; CC50 (in vitro [12]): > 50 µM; IC50 [13]: 22 µM; IC50 [5]: 5.38 µM |
| CCc1c(C(=O)N2CCc3ccc(S(=O)(=O)NC)cc32)[nH]c(C)c1C(C)=O [Compound Z1262206860] |  |  | > 32 µM | > 32 µM | > 32 µM | 1 | > 32 µM |  |
| CCN(Cc1ccccc1)S(=O)(=O)c1cc(OC)c(C)cc1OC [Compound Z2235810678] |  |  | 6.35 µM | > 32 µM | > 32 µM | 30 | 1.08 µM | L. Inf. pIC50 [10]: 5.97 |
| COc1ccc(S(=O)(=O)N(C)C)cc1NC(=O)Cn1c(C)cc2ccccc21 [Compound Z109062140] |  |  | > 32 µM | > 32 µM | > 32 µM | 1 | > 32 µM |  |
| O=S1(=O)c2ccccc2[C@H](O)[C@@H](Cc2ccccc2)N1Cc1ccccc1 [DNDI0003578378] | > 64 µM | > 64 µM |  |  |  |  |  | CC50 at 120 h (in vitro [11]): 39.7 µM; chromatographic logD (physchem): 4.2; IC50 [2, 22]: 8.91 µM; IC50 [2, 23]: 8.88 µM; IC50 [14]: 19.5 µM; IC50 [3]: 7.67 µM; CC50 (in vitro [15]): > 64 µM; CC50 (in vitro [16]): 63.9 µM |

| SMILES | CC50 at 3 days (in vitro [4]) | IC50 [6] | IC50 [7] | IC50 [8] | CC50 (MRC-5SV2 cells) | SI (vs PMM) [9] | IC50 [10] | further results |
| --- | --- | --- | --- | --- | --- | --- | --- | --- |
| CCCCCOc1cc(C)c(Cl)cc1S(=O)(=O)NCc1cccs1 [Compound 7] |  |  |  |  |  |  |  | IC50 [1, 24]: 4.37 µM; microsomal CLint at 0.5 μM (in vitro [17]): 624 µL/min/mg; IC50 [2, 25]: 0.447 µM; microsomal CLint at 0.5 μM (in vitro [18]): 693 µL/min/mg |
| COc1cc(C)c(C)cc1S(=O)(=O)NC1CCCCC1 [Compound Z1542834122] |  |  | > 32 µM | > 32 µM | > 32 µM | 1 | > 32 µM |  |
| O=S1(=O)c2ccccc2[C@H](O)[C@H](Cc2ccccc2)N1Cc1ccccc1 [DNDI0003578379] | 29.7 µM | > 64 µM |  |  |  |  |  | CC50 at 120 h (in vitro [11]): 39.4 µM; chromatographic logD (physchem): 3.9; IC50 [2, 22]: 13.5 µM; IC50 [2, 23]: 13.5 µM; IC50 [14]: 12.1 µM; IC50 [3]: 6.7 µM; CC50 (in vitro [15]): 27 µM; CC50 (in vitro [16]): > 64 µM |
| CCCCOc1cc(C)c(Cl)cc1S(=O)(=O)NCc1cccnc1 [DNDI0002558122] | > 32 µM | > 32 µM |  |  |  |  |  | IC50 [2, 20]: 16.6 µM; IC50 [2, 21]: 16.6 µM; IC50 [5]: 25.4 µM |
| CCCCOc1cc(C)c(C(C)C)cc1S(=O)(=O)NC1CCCCC1 [Compound Z1346174753] |  |  | 3.39 µM | 16 µM | 3.74 µM | 16 | 1.01 µM | L. Inf. pIC50 [10]: 6 |
| CCOc1cc(S(=O)(=O)N(Cc2ccccc2)Cc2ccccc2)c(OCC)cc1C [Compound Z1198037468] |  |  | 25.4 µM | > 32 µM | > 32 µM | 37 | 0.87 µM | L. Inf. pIC50 [10]: 6.06 |
| CN(C)S(=O)(=O)c1cccc(NC(=O)CN2CCCc3ccccc32)c1 [Compound Z46159369] |  |  | > 32 µM | > 32 µM | > 32 µM | 1 | > 32 µM |  |
| CCCCCOc1cc(C)c(Cl)cc1S(=O)(=O)NCc1ccco1 [DNDI0002567970] | 11.7 µM | > 32 µM |  |  |  |  |  | IC50 [1, 19]: 12 µM; CC50 at 120 h (in vitro [11]): > 50 µM; IC50 [2, 20]: 1.07 µM; IC50 [2, 21]: 1.08 µM; CC50 (in vitro [12]): > 50 µM; IC50 [13]: 48 µM; IC50 [5]: 4.76 µM |
| COc1cc(S(=O)(=O)N(Cc2ccccc2)Cc2ccccc2)c(OC)cc1C [Compound 6] |  |  |  |  |  |  |  | IC50 [1, 24]: 1.51 µM; microsomal CLint at 0.5 μM (in vitro [17]): 828 µL/min/mg; IC50 [2, 25]: 0.501 µM; microsomal CLint at 0.5 μM (in vitro [18]): 1080 µL/min/mg |
| CCCCCOc1cc(C)c(C)cc1S(=O)(=O)NC1CCCC1 [Compound 8] |  |  |  |  |  |  |  | IC50 [1, 24]: 12 µM; microsomal CLint at 0.5 μM (in vitro [17]): 567 µL/min/mg; IC50 [2, 25]: 0.589 µM; microsomal CLint at 0.5 μM (in vitro [18]): 416 µL/min/mg |
| CCCOc1cc(C)c(Cl)cc1S(=O)(=O)NCc1cccs1 [DNDI0002572626] | > 32 µM | > 32 µM |  |  |  |  |  | IC50 [2, 20]: 25.1 µM; IC50 [2, 21]: 25.4 µM; IC50 [3]: > 32 µM; IC50 [5]: > 32 µM |
| CCCOc1cc(C)c(C)cc1S(=O)(=O)NC1CCCCC1 [Compound Z1198524053] |  |  | > 32 µM | > 32 µM | > 32 µM | 6 | 5.38 µM | L. Inf. pIC50 [10]: 5.27 |
| COc1ccc(S(=O)(=O)N(C)C)cc1NC(=O)C1Cc2ccccc2O1 (centres unmarked) [Compound Z109062150] |  |  | > 32 µM | > 32 µM | > 32 µM | 1 | > 32 µM |  |
| CCCCCOc1cc(C)c(C)cc1S(=O)(=O)NC1CCCCC1 [Compound Z1201712752] |  |  | 4.32 µM | > 32 µM | 26.1 µM | 31 | 1.04 µM | L. Inf. pIC50 [10]: 5.98 |
| CCN(CC)S(=O)(=O)c1ccc(OC)c(NC(=O)CNc2cccc3c2CCCC3)c1 [Compound Z133511332] |  |  | > 32 µM | > 32 µM | > 32 µM | 1 | > 32 µM |  |
